# In US20250082633A1, “COMPOUNDS AND METHODS FOR MODULATING SPLICING” (REMIX THERAPEUTICS INC., priority 2021, published 2025):
# pIC50: −log10 of the molar value.
# Key:
# [1] = tested on: Target C; assay: HiBit protein abundance assay, Target C; type: cell-based; details: Homo sapiens; K562 HiBiT-modified cells, 24 hours, luminescence
# Protocol: (§1) Compounds described herein were used to screen for effects on quantitative protein abundance using a HiBit assay system (Promega). Quantitative protein abundance was determined by measuring the protein levels of HiBit-tagged protein targets expressed in cell culture via luminescence using the Nano-Glo HiBiT Lytic Detection System, which uses a split complementation assay format to reconstitute NanoBiT enzyme to generate a luminescent signal. A protein abundance assay was developed such that endogenous protein targets could be modified with the HiBiT peptide tag and their abundance could be assessed after compound treatment. Briefly, K562 cell lines containing a HiBiT-modification were treated with various compounds described herein (e.g., compounds of Formulas (I), (II), or (III)). After treatment for 24 hours, the protein abundance of a specific target was determined by measuring luminescence. • Promega Nano-Glo HiBiT Lytic Detection System (cat #N3030) • Corning 384-well TC-treated microplates (cat #3570) • Synthego Engineered Cells Knock-In Clones Cells were maintained in IMDM with 10% FBS. Before the assay, cells were diluted with phenolphthalein-free growth media (IMDM+1% FBS media) and were seeded in a 384-well plate at a density of 10000 cells/well (for each cell line listed in Table 6). Each compound was prepared as a 10-point 3-fold serial dilution in DMSO with the top dose at a final concentration of 10 μM in the well. Unmodified K562 cells were added at the previously specified density with DMSO to serve as an assay baseline and positive control (PC) and DMSO only with the respective modified cell lines was added to the negative control (NC) columns. Final DMSO concentration was kept at or below 0.25%. Treated cell plates were placed in an incubator at 37° C. with 5% CO2 for 24 hours. After 24 hours, 25 μL of Complete HiBit Lytic reagent was added to each well at room temperature (e.g. one plate requiring 10 mL Lytic Buffer, 100 μL LgBiT Protein, 200 μL Lytic Substrate), shaken for 5 minutes at 600 RPM, then left to sit for 10 minutes for signal to stabilize before reading on a Spark Cyto plate reader (Tecan) with a 500 ms measurement time. To determine compound effects on protein abundance of each target in Table 6, the percent response for each respective cell line was calculated at each compound concentration as follows: For the normalized response at each concentration, a four-parameter logistical regression was fit to the data and the response was interpolated at the 50% value to determine a concentration for protein abundance at 50% (IC50) the untreated control.
# [2] = tested on: HiBiT-tagged HTT protein in K562 cells; assay: HiBit protein abundance assay, HTT; type: cell-based, human; details: K562 HiBiT-modified cells, 24 hours, luminescence
# Protocol: as §1, with “Clones [table]” for “Clones”
SMILES,pIC50 [1],pIC50 [2]
"Cc1nc2c(C)cc(-c3cc(F)c4nn(C5CCNCC5)cc4c3)cc2o1 [Compound 137, 6-[7-fluoro-2-(4-piperidyl)indazol-5-yl]-2,4-dimethyl-1,3-benzoxazole]",> 7.00,> 7.00
"Cc1cn2nc(-c3ccc4nn(C5CCNCC5)cc4n3)cc(C)c2n1 [Compound 138, 2,8-dimethyl-6-[2-(4-piperidyl)pyrazolo[4,3-b]pyridin-5-yl]imidazo[1,2-b]pyridazine]",6.00 to 7.00,6.00 to 7.00
"Cc1cn2nc(-c3cc4cn(C5CCNCC5)nc4c(O)n3)cc(C)c2n1 [Compound 139, 5-(2,8-dimethylimidazo[1,2-b]pyridazin-6-yl)-2-(4-piperidyl)-6H-pyrazolo[3,4-c]pyridin-7-one]",6.00 to 7.00,6.00 to 7.00
"COc1cc(-c2cc3cn(C)nc3cc2O)nc2cn(C3CCNCC3)nc12 [Compound 140, 5-[7-methoxy-2-(4-piperidyl)pyrazolo[4,3-b]pyridin-5-yl]-2-methyl-indazol-6-ol]",5.00 to 6.00,5.00 to 6.00
Cn1cc2cc(-c3cc(Cl)c4nn(C5CCNCC5)cc4n3)c(O)cc2n1 [Compound 141],< 5.00,< 5.00
COC1=C(C)C2N=C(C)OC2C=C1c1cc(F)c2nn(C3CCNCC3)cc2n1 (stereo not drawn) [Compound 144],5.00 to 6.00,5.00 to 6.00
"CCN1CCC(n2cc3cc(-c4cc(C)c5nc(C)cn5n4)cc(F)c3n2)CC1 [Compound 146, 6-[2-(1-ethyl-4-piperidyl)-7-fluoro-indazol-5-yl]-2,8-dimethyl-imidazo[1,2-b]pyridazine]",> 7.00,> 7.00
"Cc1cn2nc(-c3cc4cn(C5CCNCC5)nc4cn3)cc(C)c2n1 [Compound 147, 2,8-dimethyl-6-[2-(4-piperidyl)pyrazolo[3,4-c]pyridin-5-yl]imidazo[1,2-b]pyridazine]",6.00 to 7.00,6.00 to 7.00
"Cc1cn2nc(-c3cc(F)c4nn(C5CCN(CC6CC6)CC5)cc4c3)cc(C)c2n1 [Compound 149, 6-[2-[1-(cyclopropylmethyl)-4-piperidyl]-7-fluoro-indazol-5-yl]-2,8-dimethyl-imidazo[1,2-b]pyridazine]",> 7.00,> 7.00
"Cc1cn2nc(-c3cc(F)c4nn(C5CCN(C)CC5)cc4c3)cc(C)c2n1 [Compound 150, 6-[7-fluoro-2-(1-methyl-4-piperidyl)indazol-5-yl]-2,8-dimethyl-imidazo[1,2-b]pyridazine]",> 7.00,> 7.00
"Cc1cn2nc(-c3cc(F)c4nn(C5CCN(C6CCC6)CC5)cc4c3)cc(C)c2n1 [Compound 151, 6-[2-(1-cyclobutyl-4-piperidyl)-7-fluoro-indazol-5-yl]-2,8-dimethyl-imidazo [1,2-b] pyridazine]",> 7.00,> 7.00
Cc1cn2nc(-c3cc(F)c4nn(C5CCN(CCF)CC5)cc4c3)cc(C)c2n1 [Compound 152],6.00 to 7.00,> 7.00
"Cc1cn2nc(-c3cc4cn(C5CCNCC5)nc4c(OCc4ccccc4)n3)cc(C)c2n1 [Compound 153, 6-[7-benzyloxy-2-(4-piperidyl)pyrazolo [3,4-c]pyridin-5-yl]-2,8-dimethyl-imidazo[1,2-b]pyridazine]",5.00 to 6.00,5.00 to 6.00
"Cc1cn2nc(-c3cc4cn(C5CCNCC5)nc4cc3O)cc(C)c2n1 [Compound 154, 5-(2,8-dimethylimidazo[1,2-b]pyridazin-6-yl)-2-(piperidin-4-yl)-2H-indazol-6-ol]",> 7.00,> 7.00
"COc1cc(-c2cc(C)c3nc(C)cn3n2)cc2cn(C3CCNCC3)nc12 [Compound 155, 6-(7-methoxy-2-(piperidin-4-yl)-2H-indazol-5-yl)-2,8-dimethylimidazo [1,2-b]pyridazine]",6.00 to 7.00,> 7.00
"Cc1cn2nc(-c3cc(O)c4nn(C5CCNCC5)cc4c3)cc(C)c2n1 [Compound 156, 5-(2,8-dimethylimidazo[1,2-b]pyridazin-6-yl)-2-(piperidin-4-yl)-2H-indazol-7-ol]",5.00 to 6.00,6.00 to 7.00
"COc1cc2nn(C3CCNCC3)cc2cc1-c1cc(C)c2nc(C)cn2n1 [Compound 159, 6-(6-methoxy-2-(piperidin-4-yl)-2H-indazol-5-yl)-2,8-dimethylimidazo[1,2-b]pyridazine]",< 5.00,< 5.00
"Cc1cn2nc(-c3cc(F)c4nn(C5CCN(CCO)CC5)cc4c3)cc(C)c2n1 [Compound 160, 2-[4-[5-(2,8-dimethylimidazo[1,2-b]pyridazin-6-yl)-7-fluoro-indazol-2-yl]-1-piperidyl]ethanol]",> 7.00,> 7.00
"Cc1cn2nc(-c3cc(F)c4nn(C5CCNCC5F)cc4c3)cc(C)c2n1 (stereo not drawn) [Compound 166, 6-[7-fluoro-2-(3-fluoro-4-piperidyl)indazol-5-yl]-2,8-dimethyl-imidazo [1,2-b]pyridazine]",6.00 to 7.00,> 7.00

# Now from value to compound:
pIC50 [1],pIC50 [2],SMILES
6.00 to 7.00,6.00 to 7.00,"Cn1cc2cc(-c3cc(F)c4nn(C5CCNCC5)cc4c3)ccc2n1 [Compound 145, 7-fluoro-5-(2-methylindazol-5-yl)-2-(4-piperidyl)indazole]"
< 5.00,5.00 to 6.00,"Cn1cc2cc(-c3ccc4cn(C5CCNCC5)nc4c3)cc(F)c2n1 [Compound 148, 7-fluoro-2-methyl-5-[2-(4-piperidyl)indazol-6-yl]indazole]"
< 5.00,5.00 to 6.00,"Cc1ccc2nc(-c3cc(F)c4nn(C5CCNCC5)cc4c3)ccc2n1 [Compound 157, 2-[7-fluoro-2-(4-piperidyl)indazol-5-yl]-6-methyl-1,5-naphthyridine]"
5.00 to 6.00,5.00 to 6.00,"Fc1cc(-c2ccc3ccncc3c2)cc2cn(C3CCNCC3)nc12 [Compound 158, 7-[7-fluoro-2-(4-piperidyl)indazol-5-yl]isoquinoline]"
5.00 to 6.00,6.00 to 7.00,"Fc1cc(-c2ccc3cnccc3c2)cc2cn(C3CCNCC3)nc12 [Compound 161, 6-[7-fluoro-2-(4-piperidyl)indazol-5-yl]isoquinoline]"
5.00 to 6.00,5.00 to 6.00,"Fc1cc(-c2ccc3ncccc3c2)cc2cn(C3CCNCC3)nc12 [Compound 162, 6-[7-fluoro-2-(4-piperidyl)indazol-5-yl]quinoline]"
5.00 to 6.00,5.00 to 6.00,"Cc1ccc2cc(-c3cc(F)c4nn(C5CCNCC5)cc4c3)ccc2n1 [Compound 163, 6-[7-fluoro-2-(4-piperidyl)indazol-5-yl]-2-methyl-quinoline]"
< 5.00,< 5.00,"Cc1ncc2cc(-c3cc(F)c4nn(C5CCNCC5)cc4c3)ccc2n1 [Compound 165, 6-[7-fluoro-2-(4-piperidyl)indazol-5-yl]-2-methyl-quinazoline]"
